Activity calls are given as the source filed them. No cut-off for these calls is given here.

For assay [1], the target named is T1, Protein argonaute-2 (Homo sapiens, UniProt Q9UKV8). Description: Binding affinity to human Argonaut protein 2 PAZ domain assessed as association constant by using isothermal titration microcalorimetry.
Assay [2] addresses T1, Protein argonaute-2. Description: Binding affinity to human Argonaut protein 2 PAZ domain assessed as dissociation constant by using isothermal titration microcalorimetry. Background: ITC needs no label: the signal is the heat of the interaction.
The target in assay [3] is T1, Protein argonaute-2. Description: Binding affinity to human Argonaut protein 2 PAZ domain assessed as change in enthalpy by isothermal titration microcalorimetry.
Assay [4] addresses T1, Protein argonaute-2. As to the kind of experiment: Binding affinity to human Argonaut protein 2 PAZ domain assessed as change in entropy by isothermal titration microcalorimetry.
The subject of assay [5] is HeLa. As to the kind of experiment: Inhibition of RNAi in human Hela cells expressing Renilla/firefly luciferase genes and siRNA assessed as siRNA-mediated gene silencing activity at 100 to 500 nM by dual luciferase assay relative to control. It is filed as cell-based. Particulars: dose 100-500 nM.
Assay [6] deals with HeLa. Description: Inhibition of RNAi in human Hela cells expressing Renilla/firefly luciferase genes and siRNA assessed as siRNA-mediated gene silencing activity at 500 nM by dual luciferase assay relative to control. It is filed as cell-based.

T1 sequence (Q9UKV8 whole entry, the tested form may be a part): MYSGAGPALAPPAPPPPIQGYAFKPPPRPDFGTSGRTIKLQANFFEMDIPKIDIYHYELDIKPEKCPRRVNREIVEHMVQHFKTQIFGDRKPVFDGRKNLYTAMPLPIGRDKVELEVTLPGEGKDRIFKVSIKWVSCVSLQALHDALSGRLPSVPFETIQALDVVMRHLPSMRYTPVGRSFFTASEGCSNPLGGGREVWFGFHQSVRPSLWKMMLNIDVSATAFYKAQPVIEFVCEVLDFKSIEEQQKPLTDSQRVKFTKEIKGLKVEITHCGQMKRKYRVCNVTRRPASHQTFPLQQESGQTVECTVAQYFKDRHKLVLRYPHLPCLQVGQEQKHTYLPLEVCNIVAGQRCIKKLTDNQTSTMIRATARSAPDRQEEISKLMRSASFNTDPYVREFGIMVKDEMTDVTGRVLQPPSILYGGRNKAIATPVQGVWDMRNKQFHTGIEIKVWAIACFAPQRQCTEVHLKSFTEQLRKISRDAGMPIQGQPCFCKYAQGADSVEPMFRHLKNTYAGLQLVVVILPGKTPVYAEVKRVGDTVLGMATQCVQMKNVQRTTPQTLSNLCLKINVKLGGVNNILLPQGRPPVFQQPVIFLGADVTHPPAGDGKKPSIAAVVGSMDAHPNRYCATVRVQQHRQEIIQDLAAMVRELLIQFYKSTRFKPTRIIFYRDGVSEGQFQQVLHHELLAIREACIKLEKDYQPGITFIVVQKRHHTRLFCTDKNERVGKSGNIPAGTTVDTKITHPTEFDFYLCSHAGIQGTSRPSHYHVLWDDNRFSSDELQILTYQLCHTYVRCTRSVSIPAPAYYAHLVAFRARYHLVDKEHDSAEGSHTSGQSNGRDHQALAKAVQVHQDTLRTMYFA

For orientation: Kd means the free concentration of one partner at which half of the binding sites on the other are occupied at equilibrium, for simple one-to-one binding. `Cc1cc(NS(=O)(=O)c2ccc(N)cc2)nc(C)n1` [SULFISOMIDINE]: the Ka on Protein argonaute-2 [1] is 23 10^4/M. Moreover, on Protein argonaute-2 [2], the Kd is 4.3 µM. Besides, the deltaH at Protein argonaute-2 [3] was -1.5 kcal/mol. For the same compound, at Protein argonaute-2 [4], the deltaS stood at 19.2 cal/mol.K. Further, the inhibition entry with HeLa [5] was “Dose-dependent effect”. For the same compound, in the assay on HeLa [6], the inhibition entry is “Active”.
With `Nc1ccc(S(N)(=O)=O)cc1`, the deltaS at Protein argonaute-2 [4] was 15.7 cal/mol.K. Moreover, the inhibition result in the assay on HeLa [5] was “inactive”.
As for `[H]/N=C(/N)NS(=O)(=O)c1ccc(N)cc1` [SULFAGUANIDINE], on Protein argonaute-2 [2], the Kd was 49 µM.
As to `O=c1ccn([C@@H]2O[C@H](COP(=O)(O)O)[C@@H](O)[C@H]2O)c(=O)[nH]1`, the Ka on Protein argonaute-2 [1] was 6.6 10^4/M. Moreover, on Protein argonaute-2 [3], the deltaH is -0.9 kcal/mol. Also, on Protein argonaute-2 [4], the deltaS was 18.2 cal/mol.K.
For the compound `N=C(N)NS(=O)(=O)c1ccc(N)cc1`, the Ka at Protein argonaute-2 [1] was 2 10^4/M. Besides, the deltaH at Protein argonaute-2 [3] was -1.5 kcal/mol. At Protein argonaute-2 [4], the deltaS came to 15.6 cal/mol.K. Besides, the inhibition entry in the assay with HeLa [5] was “inactive”.

(Values after ChEMBL document CHEMBL4673266, “Sulfonamide antibiotics inhibit RNAi by binding to human Argonaute protein 2 PAZ” (Bioorg Med Chem Lett, 2020).)
